Test results taken from paper PMC3944410 (Anesthesiology, 2014).
Several values for one entry are separate records, joined by “and”; a condition that tells them apart may be missing. Equal values may be shown once.

What was measured:
[1] = target: recombinant human kappa opioid receptor (Homo sapiens, UniProt P41145); assay: biochemical; settings: IC50 of inhibition of agonist-induced G protein activation
[2] = 10 mg of dezocine, postoperative patients (n=187); cited from earlier work
[3] = cited from earlier work

Sequence of recombinant human kappa opioid receptor (P41145 whole entry): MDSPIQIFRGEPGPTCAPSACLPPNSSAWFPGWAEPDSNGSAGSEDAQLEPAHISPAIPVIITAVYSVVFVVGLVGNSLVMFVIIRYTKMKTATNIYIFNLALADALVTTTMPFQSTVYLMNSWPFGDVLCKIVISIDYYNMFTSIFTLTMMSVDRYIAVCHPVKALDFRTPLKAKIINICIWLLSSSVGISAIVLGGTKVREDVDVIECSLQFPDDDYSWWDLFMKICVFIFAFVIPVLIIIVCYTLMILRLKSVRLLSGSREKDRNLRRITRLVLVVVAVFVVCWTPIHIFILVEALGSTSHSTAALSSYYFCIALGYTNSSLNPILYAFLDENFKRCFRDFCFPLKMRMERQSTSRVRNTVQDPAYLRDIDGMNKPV

C[C@@]12CCCCC[C@@H](Cc3ccc(O)cc31)[C@@H]2N [dezocine]
IC50 [1]: ~350 nM and ~800 nM
analgesic activity compared with meperidine [2]: same analgesic activity as 50 mg of meperidine
decrease of anesthetic requirement [3]: up to 50%
